Results: PubChem BioAssay (NCI)
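In this assay, cells in 96-well plates receive the compound at five concentrations for 48 hours. Endpoints are linearly interpolated between the surrounding concentrations. GI50: concentration for 50% inhibition of growth. At the TGI there is no net growth.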

What was measured:
Test in all cases: growth of human tumour cells (NCI), 48 h
[1] = test system: COLO 205 colon
[2] = test system: HCC-2998 colon
[3] = test system: HL-60(TB) leukemia
[4] = test system: HOP-62 NSCLC
[5] = test system: NCI-H460 lung
[6] = test system: SK-MEL-28 melanoma
[7] = test system: SNB-75 CNS
[8] = test system: UACC-62 melanoma
[9] = test system: UO-31 renal
[10] = test system: MDA-MB-231 breast

| Structure (SMILES) | TGI [1] | TGI [2] | TGI [3] | TGI [4] | GI50 [5] | TGI [5] | TGI [6] | GI50 [7] | TGI [7] | TGI [8] | TGI [9] | GI50 [1] | GI50 [2] | GI50 [4] | GI50 [10] | TGI [10] | GI50 [6] | GI50 [8] | GI50 [9] |
| --- | --- | --- | --- | --- | --- | --- | --- | --- | --- | --- | --- | --- | --- | --- | --- | --- | --- | --- | --- |
| O=C1C2C3C=CC(C2C(=O)N1CN1CCSCC1)C1C2C(=O)N(CN4CCSCC4)C(=O)C2C31 (stereo not given) | 97.8 µM | > 100 µM | 73 µM | > 100 µM | 40 µM | > 57.3 µM | > 100 µM | 38.6 µM | > 93 µM | > 100 µM | > 100 µM |  |  |  |  |  |  |  |  |
| [O-]c1c2c(nn1-c1ccc(Cl)cc1)c1ccccc1c[n+]2Cc1ccccc1 | > 100 µM | > 100 µM | > 100 µM | > 100 µM |  | > 100 µM | > 100 µM |  | 69.2 µM | > 100 µM | > 100 µM |  |  |  |  |  |  |  |  |
| COc1ccc(/C=C2\c3cc(OC)c(OC)c(OC)c3CC[C@@H]2O)cc1F | 7.59 µM | 80.2 µM |  | > 100 µM | 0.299 µM | 16.9 µM | > 100 µM |  |  | > 100 µM | 89.9 µM | 1.03 µM | 0.809 µM | 0.245 µM | 0.958 µM | > 100 µM | 7.54 µM | 0.283 µM | 0.534 µM |
| O=[N+]([O-])c1cc2c([N+](=O)[O-])cccc2o1 | 16.5 µM | 35.7 µM |  | 37.2 µM |  | > 100 µM | 16.8 µM |  |  | 27.7 µM | 3.98 µM |  |  |  |  | 27.6 µM |  |  |  |
| Cc1ccc2nc(NC(=O)/C(=N\NC(=S)NN)C3C(=O)NC(=S)NC3=O)sc2c1 | > 100 µM | > 100 µM | > 100 µM | > 100 µM |  | > 100 µM | > 100 µM |  | > 100 µM | > 100 µM | > 100 µM |  |  |  |  |  |  |  |  |
| CC(=O)O[C@H]1CC2C=CC3C(CCC31)O2 (stereo not given in full) | > 100 µM | > 100 µM | > 100 µM | > 100 µM |  | > 100 µM | > 100 µM |  | > 100 µM | > 100 µM | > 100 µM |  |  |  |  |  |  |  |  |
| COc1cccc(NC(=O)C(=O)C2C=CCS2(=O)=O)c1 (stereo not given) | > 100 µM | > 100 µM | > 100 µM | > 100 µM |  | > 100 µM | > 100 µM |  | > 100 µM | > 100 µM | > 100 µM |  |  |  |  |  |  |  |  |
| CCOC(=O)C(=O)Nc1ccccc1C(C)C | > 100 µM | > 100 µM | > 100 µM | > 100 µM |  | > 100 µM | > 100 µM |  | > 100 µM | > 100 µM | > 100 µM |  |  |  |  |  |  |  |  |
